From US12410162B2, “Pyrazole acylhydrazone containing trifluoromethylthiadiazole units, preparation method and use thereof” (NANTONG UNIVERSITY, priority 2020, dated 2025) come the findings set out here.

This test has as its system Mycosphaerella melonis. The experiment in a line: Screening of bactericidal activity against Mycosphaerella melonis (toxic medium method). The format is cell-based. To be noted: test concentration 200 μg/mL, 24-26° C. in the dark. The method, then: Screening of the Bactericidal Activity of the Samples Against Mycosphaerella melonis The toxic medium method was used to determine the antibacterial activity of the target against Mycosphaerella melonis. First the drug solution was added to the culture medium, then the bacterial cake was placed on the culture medium, the petri dish was placed in a 24-26° C. incubator in the dark, and then cultured at a constant temperature. Then according to the growth rate of pathogenic bacteria, when the diameter of the control was to about 8 cm, the antibacterial rate % was calculated. The test concentration was 200 μg/mL (the drug solution with other concentrations was obtained by diluting the drug solution with the concentration of 200 μg/mL).
`Cc1nn(C)c(Oc2cccc(Cl)c2)c1C=NNC(=O)c1snnc1C(F)(F)F` [Ia]: the “Mycosphaerella melonis (inhibition ratio, %)” value came out at 100%. As to `Cc1nn(C)c(Oc2cccc(Br)c2)c1C=NNC(=O)c1snnc1C(F)(F)F` [Ib], the “Mycosphaerella melonis (inhibition ratio, %)” value is recorded as 100%. In the case of `Cc1nn(C)c(Oc2ccc(F)cc2F)c1C=NNC(=O)c1snnc1C(F)(F)F` [Ic] it was 90%; in that of `Cc1nn(C)c(Oc2ccc(Cl)cc2Cl)c1C=NNC(=O)c1snnc1C(F)(F)F` [Id], 100%.
